Measured values: ChEMBL document CHEMBL3885861, “Open TG-GATES”

Species on record: Rattus norvegicus
Test: Open TG-GATES - Regimen: Single
Type: toxicity, organism-based, Sprague-Dawley
Design: regimen Single, gender Male, age 6 weeks
Settings: in vivo, po, 0 mg/kg, route gavage, dose level Control; for APTT / Bas / Eos / Fbg / Hb / Ht / Lym / MCH / MCHC / MCV / Mono / Neu / PT / Plat / RBC / Ret / WBC: tissue Blood; for KIDNEY_L / KIDNEY_R / KIDNEY_TOTAL: tissue Kidney; for LIVER: tissue Liver; for A/G / ALP / ALT / AST / BUN / CRE / Ca / Cl / DBIL / GLC / IP / K / LDH / Na / PL / RALB / TBIL / TC / TG / TP / gamma-GTP: tissue Plasma

## Cc1ccc(C)c(OCCCC(C)(C)C(=O)O)c1 [GEMFIBROZIL]
3 h
  TERMINAL_BW: 223.7 g
  APTT: 16.9 s
  Bas: 0%
  Eos: 0.6%
  Fbg: 276.4 mg/dL
  Hb: 14 g/dL
  Ht: 40.2%
  Lym: 81.2%
  MCH: 22.6 pg
  MCHC: 34.9%
  MCV: 64.7 fL
  Mono: 2.8%
  Neu: 14.6%
  PT: 12.3 s
  Plat: 124.4 x10_4/uL
  RBC: 621.6 x10_4/ul
  Ret: 8%
  WBC: 76.9 x10_2/uL
  KIDNEY_L: 1 g
  KIDNEY_R: 0.9 g
  KIDNEY_TOTAL: 1.9 g
  LIVER: 9.8 g
  A/G: 0.9
  ALP: 1456 IU/L
  ALT: 45.2 IU/L
  AST: 71.2 IU/L
  BUN: 12.6 mg/dL
  CRE: 0.2 mg/dL
  Ca: 11.3 mg/dL
  Cl: 105 meq/L
  DBIL: 0.046 mg/dL
  GLC: 180.6 mg/dL
  IP: 10.4 mg/dL
  K: 4.2 meq/L
  LDH: 74 IU/L
  Na: 140.2 meq/L
  PL: 179.2 mg/dL
  RALB: 2.6 g/dL
  TBIL: 0.052 mg/dL
  TC: 86.4 mg/dL
  TG: 155.8 mg/dL
  TP: 5.6 g/dL
  gamma-GTP: 1 IU/L
6 h
  TERMINAL_BW: 221.6 g
  APTT: 16.7 s
  Bas: 0%
  Eos: 0.8%
  Fbg: 299 mg/dL
  Hb: 13.9 g/dL
  Ht: 40.6%
  Lym: 75.4%
  MCH: 21.4 pg
  MCHC: 34.3%
  MCV: 62.5 fL
  Mono: 3.6%
  Neu: 19.2%
  PT: 12.1 s
  Plat: 127 x10_4/uL
  RBC: 649.8 x10_4/ul
  Ret: 7.3%
  WBC: 71.6 x10_2/uL
  KIDNEY_L: 0.9 g
  KIDNEY_R: 0.9 g
  KIDNEY_TOTAL: 1.8 g
  LIVER: 9.1 g
  A/G: 0.9
  ALP: 1398 IU/L
  ALT: 43 IU/L
  AST: 70.6 IU/L
  BUN: 9.6 mg/dL
  CRE: 0.2 mg/dL
  Ca: 11.1 mg/dL
  Cl: 107.4 meq/L
  DBIL: 0.024 mg/dL
  GLC: 183 mg/dL
  IP: 10.9 mg/dL
  K: 4.3 meq/L
  LDH: 60.8 IU/L
  Na: 141.6 meq/L
  PL: 156 mg/dL
  RALB: 2.7 g/dL
  TBIL: 0.046 mg/dL
  TC: 86.2 mg/dL
  TG: 71.2 mg/dL
  TP: 5.6 g/dL
  gamma-GTP: 1.4 IU/L
9 h
  TERMINAL_BW: 223.1 g
  APTT: 15.5 s
  Bas: 0%
  Eos: 1%
  Fbg: 302.2 mg/dL
  Hb: 14 g/dL
  Ht: 41%
  Lym: 80%
  MCH: 21.6 pg
  MCHC: 34.1%
  MCV: 63.4 fL
  Mono: 2.6%
  Neu: 15.8%
  PT: 12.3 s
  Plat: 110.9 x10_4/uL
  RBC: 646.6 x10_4/ul
  Ret: 7.6%
  WBC: 69.8 x10_2/uL
  KIDNEY_L: 0.9 g
  KIDNEY_R: 0.9 g
  KIDNEY_TOTAL: 1.8 g
  LIVER: 8.6 g
  A/G: 0.9
  ALP: 1255.2 IU/L
  ALT: 36.6 IU/L
  AST: 65.4 IU/L
  BUN: 12 mg/dL
  CRE: 0.2 mg/dL
  Ca: 11.1 mg/dL
  Cl: 107 meq/L
  DBIL: 0.02 mg/dL
  GLC: 194.2 mg/dL
  IP: 11.9 mg/dL
  K: 4 meq/L
  LDH: 58 IU/L
  Na: 143.4 meq/L
  PL: 150.2 mg/dL
  RALB: 2.6 g/dL
  TBIL: 0.046 mg/dL
  TC: 82.2 mg/dL
  TG: 60.4 mg/dL
  TP: 5.4 g/dL
  gamma-GTP: 1.2 IU/L
24 h
  TERMINAL_BW: 226.6 g
  APTT: 14.7 s
  Bas: 0%
  Eos: 0.8%
  Fbg: 286 mg/dL
  Hb: 13.5 g/dL
  Ht: 38.9%
  Lym: 78.2%
  MCH: 21.7 pg
  MCHC: 34.7%
  MCV: 62.6 fL
  Mono: 2.6%
  Neu: 17.8%
  PT: 12 s
  Plat: 117.7 x10_4/uL
  RBC: 621.8 x10_4/ul
  Ret: 6.6%
  WBC: 87.1 x10_2/uL
  KIDNEY_L: 1 g
  KIDNEY_R: 0.9 g
  KIDNEY_TOTAL: 1.9 g
  LIVER: 10.2 g
  A/G: 1
  ALP: 1725.4 IU/L
  ALT: 48 IU/L
  AST: 74.6 IU/L
  BUN: 16.2 mg/dL
  CRE: 0.2 mg/dL
  Ca: 11.4 mg/dL
  Cl: 104.8 meq/L
  DBIL: 0.024 mg/dL
  GLC: 187 mg/dL
  IP: 8.7 mg/dL
  K: 4.1 meq/L
  LDH: 79.8 IU/L
  Na: 142 meq/L
  PL: 144.6 mg/dL
  RALB: 2.7 g/dL
  TBIL: 0.034 mg/dL
  TC: 78 mg/dL
  TG: 75 mg/dL
  TP: 5.6 g/dL
  gamma-GTP: 1 IU/L
